According to PubChem BioAssay (NCI):
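Cultured in 96-well plates, cells were exposed to test compound for 48 hours across five concentrations. TGI marks complete inhibition of growth.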

Legend:
Assay in all cases: NCI tumour cell line growth inhibition, 48 h
786-0 renal = tested on: 786-0 renal
A498 renal = tested on: A498 renal
A549 NSCLC = tested on: A549 NSCLC
ACHN renal = tested on: ACHN renal
CAKI-1 renal = tested on: CAKI-1 renal
CCRF-CEM leukemia = tested on: CCRF-CEM leukemia
COLO 205 colon = tested on: COLO 205 colon
DLD-1 colon = tested on: DLD-1 colon
DMS 114 small cell lung = tested on: DMS 114 small cell lung
DMS 273 small cell lung = tested on: DMS 273 small cell lung
EKVX NSCLC = tested on: EKVX NSCLC
HCC-2998 colon = tested on: HCC-2998 colon
HCT-116 colon = tested on: HCT-116 colon
HCT-15 colon = tested on: HCT-15 colon
HL-60(TB) leukemia = tested on: HL-60(TB) leukemia
HOP-18 NSCLC = tested on: HOP-18 NSCLC
HOP-62 NSCLC = tested on: HOP-62 NSCLC
HOP-92 NSCLC = tested on: HOP-92 NSCLC
HT29 colon = tested on: HT29 colon
IGROV1 ovarian = tested on: IGROV1 ovarian
K-562 leukemia = tested on: K-562 leukemia
KM12 colon = tested on: KM12 colon
KM20L2 colon = tested on: KM20L2 colon
LOX IMVI melanoma = tested on: LOX IMVI melanoma
LXFL 529 NSCLC = tested on: LXFL 529 NSCLC
M14 melanoma = tested on: M14 melanoma
M19-MEL melanoma = tested on: M19-MEL melanoma
MALME-3M melanoma = tested on: MALME-3M melanoma
MOLT-4 leukemia = tested on: MOLT-4 leukemia
NCI-H226 lung = tested on: NCI-H226 lung
NCI-H23 lung = tested on: NCI-H23 lung
NCI-H460 lung = tested on: NCI-H460 lung
NCI-H522 lung = tested on: NCI-H522 lung
OVCAR-3 ovarian = tested on: OVCAR-3 ovarian
OVCAR-4 ovarian = tested on: OVCAR-4 ovarian
OVCAR-5 ovarian = tested on: OVCAR-5 ovarian
RPMI-8226 leukemia = tested on: RPMI-8226 leukemia
RXF 393 renal = tested on: RXF 393 renal
RXF-631 renal = tested on: RXF-631 renal
SF-268 CNS = tested on: SF-268 CNS
SF-295 CNS = tested on: SF-295 CNS
SF-539 CNS = tested on: SF-539 CNS
SK-MEL-2 melanoma = tested on: SK-MEL-2 melanoma
SK-MEL-28 melanoma = tested on: SK-MEL-28 melanoma
SK-MEL-5 melanoma = tested on: SK-MEL-5 melanoma
SK-OV-3 ovarian = tested on: SK-OV-3 ovarian
SNB-19 CNS = tested on: SNB-19 CNS
SNB-75 CNS = tested on: SNB-75 CNS
SNB-78 CNS = tested on: SNB-78 CNS
SW-620 colon = tested on: SW-620 colon
TK-10 renal = tested on: TK-10 renal
U251 CNS = tested on: U251 CNS
UACC-257 melanoma = tested on: UACC-257 melanoma
UACC-62 melanoma = tested on: UACC-62 melanoma
UO-31 renal = tested on: UO-31 renal
XF 498 CNS = tested on: XF 498 CNS
OVCAR-8 ovarian = tested on: OVCAR-8 ovarian
SN12C renal = tested on: SN12C renal
SR leukemia = tested on: SR leukemia

Measured: TGI

COc1cc2c(cc1O)[C@H](C)C(c1ccc(Cl)cc1)O2 (some centres undefined)
66.2 µM: KM20L2 colon
34.5 µM: DMS 273 small cell lung
43.3 µM: SNB-75 CNS
25.6 µM: RPMI-8226 leukemia
82.6 µM: SF-295 CNS
30.8 µM: DMS 114 small cell lung
30.1 µM: HCT-116 colon
69 µM: U251 CNS
70.8 µM: NCI-H23 lung
72.6 µM: SF-268 CNS
34.7 µM: LXFL 529 NSCLC
79.4 µM: UO-31 renal
79.6 µM: DLD-1 colon
27.8 µM: ACHN renal
98.6 µM: A549 NSCLC
40.9 µM: MOLT-4 leukemia
35.6 µM: HL-60(TB) leukemia
78.8 µM: TK-10 renal
92.3 µM: EKVX NSCLC
55.1 µM: M14 melanoma
40.4 µM: HOP-92 NSCLC
27.3 µM: NCI-H522 lung
51.7 µM: K-562 leukemia
27.7 µM: HCT-15 colon
62.1 µM: KM12 colon
39 µM: CCRF-CEM leukemia
32 µM: 786-0 renal
38 µM: SW-620 colon
50.5 µM: RXF-631 renal
77.5 µM: RXF 393 renal
49.2 µM: CAKI-1 renal
31.8 µM: SK-MEL-5 melanoma
56 µM: SK-MEL-2 melanoma
29.4 µM: LOX IMVI melanoma | XF 498 CNS
33.4 µM: NCI-H460 lung
92.4 µM: UACC-62 melanoma
36.1 µM: HCC-2998 colon
80.6 µM: MALME-3M melanoma
70 µM: NCI-H226 lung
33 µM: M19-MEL melanoma
68.2 µM: HOP-62 NSCLC
not listed: OVCAR-8 ovarian | SN12C renal | SR leukemia
> 100 µM: all other assays above

COc1ccc(-c2cc(C(=O)Nc3cccc(C(F)(F)F)c3)[nH]c(=S)n2)cc1
not listed: RXF-631 renal
> 100 µM: all other assays above

CCCCOC1CC2(c3ccc(OC)cc3)C(=O)c3ccccc3N2O1 (centres undefined)
70.1 µM: UACC-257 melanoma
61.5 µM: MOLT-4 leukemia
99.5 µM: DMS 114 small cell lung
54.1 µM: COLO 205 colon
81.2 µM: NCI-H522 lung
88.4 µM: SK-MEL-5 melanoma
65.7 µM: RPMI-8226 leukemia
58.3 µM: MALME-3M melanoma
50 µM: RXF 393 renal
> 100 µM: 786-0 renal | A549 NSCLC | CAKI-1 renal | CCRF-CEM leukemia | EKVX NSCLC | HCT-116 colon | K-562 leukemia | KM12 colon | M14 melanoma | OVCAR-3 ovarian | OVCAR-8 ovarian | SF-268 CNS | SF-295 CNS | SF-539 CNS | SK-MEL-2 melanoma | SK-OV-3 ovarian | SNB-75 CNS | SW-620 colon | TK-10 renal
not listed: DLD-1 colon | HCC-2998 colon | HL-60(TB) leukemia | HOP-18 NSCLC | HOP-62 NSCLC | HOP-92 NSCLC | HT29 colon | LXFL 529 NSCLC | NCI-H23 lung | OVCAR-4 ovarian | SK-MEL-28 melanoma | SR leukemia
> 10 µM: all other assays above

Nc1nc2ncn(CCO)c2c(=O)[nH]1
not listed: A498 renal | CAKI-1 renal | DMS 114 small cell lung | IGROV1 ovarian | K-562 leukemia | KM12 colon | M14 melanoma | NCI-H522 lung | OVCAR-4 ovarian | RXF-631 renal | SK-MEL-5 melanoma
> 100 µM: all other assays above
